Assay results as given in patent publication US20230312578A1, “6H-INDOLO[2,3-B]QUINOXALINE DERIVATIVES USEFUL IN THERAPY” (Vironova Medical AB, priority 2020, published 2023).
Where two headings read alike, the source gives them in different places.

Columns and labels:
Format in all cases: cell-based
HS 578T = assay: Human tumor cell line growth assay (SRB); settings: Breast, 48 h; for CC50: read-out: LC50 (the source's name)
HT29 = assay: Human tumor cell line growth assay (SRB); settings: Homo sapiens, HT-29; Colon, HT29, 48 h
[1] = Human tumor cell line growth assay (SRB); settings: human, HT29 cells (colon), HT29, 48 h, read-out: LC50
HOP-62 = assay: Human tumor cell line growth assay (SRB); settings: Homo sapiens; NSCLC, HOP-62, 48 h
[2] = Human tumor cell line growth assay (SRB); settings: human, HOP-62 cells (NSCLC), HOP-62, 48 h, read-out: LC50
DU-145 = assay: Human tumor cell line growth assay (SRB); settings: Prostate, DU-145, 48 h; for CC50: read-out: LC50 (the source's name)
NCI-H226 = assay: Human tumor cell line growth assay (SRB); settings: Homo sapiens; NSCLC, NCI-H226, 48 h
[3] = Human tumor cell line growth assay (SRB); settings: human, NCI-H226 cells (NSCLC), NCI-H226, 48 h, read-out: LC50
SF-539 = assay: Human tumor cell line growth assay (SRB); settings: Homo sapiens; CNS, SF-539, 48 h
BT-549 = assay: Human tumor cell line growth assay (SRB); settings: Breast, BT-549, 48 h; for CC50: read-out: LC50 (the source's name)
SF-268 = assay: Human tumor cell line growth assay (SRB); settings: Homo sapiens; CNS, SF-268, 48 h
[4] = Human tumor cell line growth assay (SRB); settings: human, SF-268 cells (CNS), SF-268, 48 h
[5] = Human tumor cell line growth assay (SRB); settings: human, OVCAR-5 cells (ovarian), OVCAR-5, 48 h, read-out: LC50
OVCAR-5 = assay: Human tumor cell line growth assay (SRB); settings: Homo sapiens; Ovarian, OVCAR-5, 48 h
Human tumor cell lines = assay: Human tumor cell line growth assay (SRB), summary over the panel; settings: overall over the panel
MDA-MB-435 = assay: Human tumor cell line growth assay (SRB); settings: Homo sapiens; Melanoma, MDA-MB-435, 48 h
PC-3 = assay: Human tumor cell line growth assay (SRB); settings: Prostate, PC-3, 48 h
[6] = Human tumor cell line growth assay (SRB); settings: human, HOP-92 cells (NSCLC), HOP-92, 48 h
HOP-92 = assay: Human tumor cell line growth assay (SRB); settings: Homo sapiens; NSCLC, HOP-92, 48 h
SK-OV-3 = assay: Human tumor cell line growth assay (SRB); settings: Ovarian, SK-OV-3, 48 h; for CC50: read-out: LC50 (the source's name)
OVCAR-3 = assay: Human tumor cell line growth assay (SRB); settings: Homo sapiens; Ovarian, OVCAR-3, 48 h
HCC-2998 = assay: Human tumor cell line growth assay (SRB); settings: Homo sapiens; Colon, HCC-2998, 48 h
NCI-H460 = assay: Human tumor cell line growth assay (SRB); settings: Homo sapiens; NSCLC, NCI-H460, 48 h
SK-MEL-28 = assay: Human tumor cell line growth assay (SRB); settings: Homo sapiens; Melanoma, SK-MEL-28, 48 h
[7] = Human tumor cell line growth assay (SRB); settings: human, NCI-H322M cells (NSCLC), read-out: LC50
NCI-H322M = assay: Human tumor cell line growth assay (SRB); settings: Homo sapiens, NSCLC, 48 h
MCF7 = assay: Human tumor cell line growth assay (SRB); settings: Breast, MCF7, 48 h; for CC50: read-out: LC50 (the source's name)
EKVX = assay: Human tumor cell line growth assay (SRB); settings: Homo sapiens, NSCLC, 48 h
[8] = Human tumor cell line growth assay (SRB); settings: human, UACC-62 cells (melanoma), UACC-62, 48 h, read-out: LC50
UACC-62 = assay: Human tumor cell line growth assay (SRB); settings: Homo sapiens; Melanoma, UACC-62, 48 h
[9] = Human tumor cell line growth assay (SRB); settings: human, SF-539 cells (CNS), SF-539, 48 h, read-out: LC50
[10] = Human tumor cell line growth assay (SRB); settings: human, MDA-MB-435 cells (melanoma), MDA-MB-435, 48 h, read-out: LC50
[11] = Human tumor cell line growth assay (SRB); settings: human, OVCAR-3 cells (ovarian), OVCAR-3, 48 h, read-out: LC50
[12] = Human tumor cell line growth assay (SRB); settings: human, HCC-2998 cells (colon), HCC-2998, 48 h, read-out: LC50
[13] = Human tumor cell line growth assay (SRB); settings: human, NCI-H460 cells (NSCLC), NCI-H460, 48 h, read-out: LC50
[14] = Human tumor cell line growth assay (SRB); settings: human, SK-MEL-28 cells (melanoma), SK-MEL-28, 48 h, read-out: LC50
[15] = Human tumor cell line growth assay (SRB); settings: human, EKVX cells (NSCLC), read-out: LC50

Cc1cc2nc3c4cc(O)ccc4n(CCN(C)C)c3nc2cc1C [JBD-139, 6-(2-(dimethylamino)ethyl)-2,3-dimethyl-6H-indolo [2,3-b]quinoxalin-9-ol]
GI50 (HS 578T): 1400 nM | CC50 (HS 578T): > 100000 nM | GI50 (HT29): 379 nM | CC50 at 48 h [1]: > 100000 nM | GI50 (HOP-62): 569 nM | CC50 at 48 h [2]: > 100000 nM | GI50 (DU-145): 598 nM | CC50 (DU-145): > 100000 nM | GI50 (NCI-H226): 1340 nM | CC50 at 48 h [3]: 19500 nM | GI50 (SF-539): 422 nM | GI50 (BT-549): 1840 nM | CC50 (BT-549): > 100000 nM | GI50 (SF-268): 822 nM | LC50 (50% lethal concentration) at 48 h [4]: > 100000 nM | CC50 at 48 h [5]: > 100000 nM | GI50 (OVCAR-5): 867 nM | cytotoxicity, comparison in words (Human tumor cell lines): cytotoxicity that is higher | GI50 (MDA-MB-435): 529 nM | GI50 (PC-3): 491 nM | LC50 at 48 h [6]: > 100000 nM | GI50 (HOP-92): 246 nM | GI50 (SK-OV-3): 1160 nM | CC50 (SK-OV-3): > 100000 nM | GI50 (OVCAR-3): 970 nM | GI50 (HCC-2998): 750 nM | GI50 (NCI-H460): 348 nM | GI50 (SK-MEL-28): 1500 nM | CC50 at 48 h [7]: > 100000 nM | GI50 (NCI-H322M): 516 nM | GI50 (MCF7): 351 nM | CC50 (MCF7): > 100000 nM | GI50 (EKVX): 1100 nM | CC50 at 48 h [8]: 6370 nM | GI50 (UACC-62): 479 nM

Cc1cc2nc3c4ccccc4n(CCN(C)C)c3nc2cc1C [B220, 2-(2,3-dimethyl-6H-indolo [2,3-b]quinoxalin-6-yl)-N,N-dimethylethanamine, reference compound]
GI50 (HS 578T): 1570 nM | CC50 (HS 578T): 67400 nM | GI50 (HT29): 760 nM | CC50 at 48 h [1]: 45300 nM | GI50 (HOP-62): 1110 nM | CC50 at 48 h [2]: > 100000 nM | GI50 (DU-145): 2070 nM | CC50 (DU-145): 55600 nM | GI50 (NCI-H226): 2010 nM | CC50 at 48 h [3]: > 100000 nM | GI50 (SF-539): 1830 nM | CC50 at 48 h [9]: 15000 nM | GI50 (BT-549): 2070 nM | CC50 (BT-549): 28700 nM | GI50 (SF-268): 1450 nM | LC50 (50% lethal concentration) at 48 h [4]: 28000 nM | CC50 at 48 h [5]: 33400 nM | GI50 (OVCAR-5): 2100 nM | GI50 (MDA-MB-435): 1610 nM | CC50 at 48 h [10]: 7490 nM | GI50 (PC-3): 2010 nM | CC50 (PC-3; read-out: LC50 (the source's name)): > 100000 nM | LC50 at 48 h [6]: > 100000 nM | GI50 (HOP-92): 1360 nM | GI50 (SK-OV-3): 3100 nM | CC50 (SK-OV-3): > 100000 nM | CC50 at 48 h [11]: 56800 nM | GI50 (OVCAR-3): 1910 nM | GI50 (HCC-2998): 1470 nM | CC50 at 48 h [12]: 15700 nM | CC50 at 48 h [13]: 37300 nM | GI50 (NCI-H460): 709 nM | GI50 (SK-MEL-28): 2090 nM | CC50 at 48 h [14]: 9450 nM | CC50 at 48 h [7]: 31200 nM | GI50 (NCI-H322M): 1860 nM | GI50 (MCF7): 1410 nM | CC50 (MCF7): 34800 nM | GI50 (EKVX): 2230 nM | CC50 at 48 h [15]: 83900 nM | CC50 at 48 h [8]: 5580 nM | GI50 (UACC-62): 1430 nM
